Data published in patent publication US4667027A, “Cephem compounds and their production” (Takeda Chemical Industries, Ltd., priority 1984, dated 1987).
≈ marks a conversion by molar mass, not a printed value.

Key:
Escherichia coli PG8 = assay: β-lactamase stability test, growth inhibition zone, no β-lactamase added; assay type: cell-based; conditions: β-lactamase not added; test organism Escherichia coli PG8; drug 100 μg/ml; nutrient agar pH 7.0; read-out: diameter of growth inhibition zone
Text: (§1) TAN-591A, B, C are stable to various β-lactamases. The results of stability test of the antibiotic to two β-lactamases employing Escherichia coli PG8 as a test organism are shown in Table 5. […]

penicillinase = assay: β-lactamase stability test, growth inhibition zone with penicillinase; assay type: cell-based; conditions: penicillinase added; test organism Escherichia coli PG8; drug 100 μg/ml; nutrient agar pH 7.0
Text: as §1

[1] = test system: Acinetobacter calcoaceticus IFO 12552; assay: Antimicrobial spectrum, minimal inhibitory concentration (agar dilution); assay type: cell-based; conditions: IFO12552, hydrochloride, inoculum 1 loopful of about 10^6/ml
Text: (§2) *Culture medium: 17.5 g of Bacto antibiotic medium 3 (Difco), 5 g of Bact
(§3) yeast extract (Difco), 20 g of Bacto agar (Difco), 1 l of distilled water
(§4) The amount of inoculated microorganism: 1 loopful of about 10^6 /ml o
(§5) microorganism suspension.
(§6) *Medium: Bacto antibiotic medium (Difco) 17.5 g, Bacto yeast extract
(§7) (Difco) 5 g, Bacto agar (Difco) 20 g, distilled water 1 l, pH not

[2] = test system: Alcaligenes faecalis IFO 13111; assay: as above; assay type: cell-based; conditions: IFO13111, hydrochloride, inoculum 1 loopful of about 10^6/ml
Text: as §2, §3, §4, §5, §6, §7

[3] = test system: Bacillus megaterium IFO 12108; assay: as above; assay type: cell-based; conditions: Priestia megaterium, IFO12108, hydrochloride, inoculum 1 loopful of about 10^6/ml
Text: as §2, §3, §4, §5, §6, §7

[4] = test system: Bacillus subtilis NIHJ PCI 219; assay: as above; assay type: cell-based; conditions: hydrochloride, inoculum 1 loopful of about 10^6/ml
Text: as §2, §3, §4, §5, §6, §7

[5] = test system: Brevibacterium thiogenitalis ATCC 19240; assay: as above; assay type: cell-based; conditions: Corynebacterium glutamicum, ATCC19240, hydrochloride, inoculum 1 loopful of about 10^6/ml
Text: as §2, §3, §4, §5, §6, §7

[6] = test system: Citrobacter freundii IFO 12681; assay: as above; assay type: cell-based; conditions: IFO12681, hydrochloride, inoculum 1 loopful of about 10^6/ml
Text: as §2, §3, §4, §5, §6, §7

[7] = test system: Escherichia coli NIHJ JC-2; assay: as above; assay type: cell-based; conditions: NIHJJC2, hydrochloride, inoculum 1 loopful of about 10^6/ml
Text: as §2, §3, §4, §5, §6, §7

[8] = test system: Klebsiella pneumoniae IFO 3317; assay: as above; assay type: cell-based; conditions: IFO3317, hydrochloride, inoculum 1 loopful of about 10^6/ml
Text: as §2, §3, §4, §5, §6, §7

[9] = test system: Proteus vulgalis IFO 3988; assay: as above; assay type: cell-based; conditions: hydrochloride, inoculum 1 loopful of about 10^6/ml
Text: as §2, §3, §4, §5, §6, §7

[10] = test system: Pseudomonas aeruginosa IFO 3080; assay: as above; assay type: cell-based; conditions: IFO3080, hydrochloride, inoculum 1 loopful of about 10^6/ml
Text: as §2, §3, §4, §5, §6, §7

[11] = test system: Salmonella typhimurium IFO 12529; assay: as above; assay type: cell-based; conditions: Salmonella enterica, hydrochloride, inoculum 1 loopful of about 10^6/ml
Text: as §2, §3, §4, §5, §6, §7

[12] = test system: Serratia marcescens IFO 12648; assay: as above; assay type: cell-based; conditions: IFO12648, hydrochloride, inoculum 1 loopful of about 10^6/ml
Text: as §2, §3, §4, §5, §6, §7

[13] = test system: Staphylococcus aureus FDA 209P; assay: as above; assay type: cell-based; conditions: FDA209P, hydrochloride, inoculum 1 loopful of about 10^6/ml
Text: as §2, §3, §4, §5, §6, §7

cephalosporinase = assay: β-lactamase stability test, growth inhibition zone with cephalosporinase; assay type: cell-based; conditions: cephalosporinase added; test organism Escherichia coli PG8; drug 100 μg/ml; nutrient agar pH 7.0
Text: as §1

Escherichia coli 0-111 = assay: Therapeutic effect to infectious disease in mice; assay type: in vivo; conditions: Escherichia coli, 0111, sc
Text: The therapeutic effect of TAN-592B.hydrochloride to infectious disease in mice is shown below.
*Intraperitoneal infection
The therapeutic effect of TAN-591A.hydrochloride to infectious disease in mice is shown below.

[14] = Toxicity after subcutaneous administration to mice; assay type: in vivo; conditions: dose of 1 g/kg, hydrochloride
Procedure: When Antibiotic TAN-592B hydrochloride was administered subcutaneously in a dose of 1 g/kg to mice, no death was observed, and therefore Antibiotic TAN-592 is considered to be low in toxicity.
When Antibiotic TAN-591A hydrochloride was administered subcutaneously a dose of 1 g/kg to mice, no death was observed, and therefore Antibiotic TAN-591 is considered to be low in toxicity.

Solubility in solvents = assay type: physicochemical; conditions: hydrochloride
[15] = dimethylsulfoxide, methanol, acetone, ethyl acetate
[16] = water, aqueous acetone, aqueous alcohol

Structure (SMILES)	zone of inhibition at 100 µg/mL (Escherichia coli PG8) [mm]	diameter of growth inhibition zone (penicillinase) [mm]	MIC [1] [µg/mL]	MIC [2] [µg/mL]	MIC [3] [µg/mL]	MIC [4] [µg/mL]	MIC [5] [µg/mL]	MIC [6] [µg/mL]	MIC [7] [µg/mL]	MIC [8] [µg/mL]	MIC [9] [µg/mL]	MIC [10] [µg/mL]	MIC [11] [µg/mL]	MIC [12] [µg/mL]	MIC [13] [µg/mL]	diameter of growth inhibition zone (cephalosporinase) [mm]	ED50 (Escherichia coli 0-111) [mg/kg]	death [14]	Solubility (Solubility in solvents; [15])	Solubility (Solubility in solvents; [16])
CO[C@@]1(NC(=O)CCC[C@@H](N)C(=O)O)C(=O)N2C(C(=O)O)=C(COC(N)=O)CS[C@@H]21 [CMC, cephamycin C, reference compound]	34	34																		
CC1(C)S[C@@H]2[C@H](NC(=O)Cc3ccccc3)C(=O)N2[C@H]1C(=O)O [PCG, benzylpenicillin, reference compound]	22																			
NCCCCC(NC(=O)C(N)CO)C(O)CC(=O)OCC1=C(C(=O)O)N2C(=O)C(NC=O)(NC(=O)CCCC(N)C(=O)O)C2SC1 (stereo not shown) [TAN-591A]	22.5	22	1.56 (≈ 2.31 µM)	6.25 (≈ 9.25 µM)	12.5 (≈ 18.5 µM)	12.5 (≈ 18.5 µM)	6.25 (≈ 9.25 µM)	50 (≈ 74 µM)	25 (≈ 37 µM)	50 (≈ 74 µM)	25 (≈ 37 µM)	100 (≈ 148 µM)	25 (≈ 37 µM)	25 (≈ 37 µM)	> 100	22	16.2	no death	Sparingly soluble	Easily soluble
NCCCCC(NC(=O)C(CO)NC(=O)C(N)CO)C(O)CC(=O)OCC1=C(C(=O)O)N2C(=O)C(NC=O)(NC(=O)CCCC(N)C(=O)O)C2SC1 (stereo not shown) [TAN-591B]	23	23	3.13 (≈ 4.1 µM)	12.5 (≈ 16.4 µM)	12.5 (≈ 16.4 µM)	25 (≈ 32.8 µM)	6.25 (≈ 8.19 µM)	50 (≈ 65.5 µM)	25 (≈ 32.8 µM)	50 (≈ 65.5 µM)	25 (≈ 32.8 µM)	> 100	25 (≈ 32.8 µM)	50 (≈ 65.5 µM)	> 100	23			Sparingly soluble	Easily soluble
CC(N)C(=O)NC(CO)C(=O)NC(CO)C(=O)NC(CCCCN)C(O)CC(=O)OCC1=C(C(=O)O)N2C(=O)C(NC=O)(NC(=O)CCCC(N)C(=O)O)C2SC1 (stereo not shown) [TAN-591C]	22	22	3.13 (≈ 3.75 µM)	50 (≈ 60 µM)	25 (≈ 30 µM)	25 (≈ 30 µM)	12.5 (≈ 15 µM)	100 (≈ 120 µM)	50 (≈ 60 µM)	50 (≈ 60 µM)	50 (≈ 60 µM)	> 100	50 (≈ 60 µM)	50 (≈ 60 µM)	> 100	22			Sparingly soluble	Easily soluble
N=C(N)NCCCC(NC(=O)C(N)CO)C(O)CC(=O)OCC1=C(C(=O)O)N2C(=O)C(NC=O)(NC(=O)CCCC(N)C(=O)O)C2SC1 (stereo not shown) [TAN-592A]	28	28	1.56 (≈ 2.22 µM)	3.13 (≈ 4.45 µM)	12.5 (≈ 17.8 µM)	12.5 (≈ 17.8 µM)	3.13 (≈ 4.45 µM)	50 (≈ 71 µM)	12.5 (≈ 17.8 µM)	50 (≈ 71 µM)	12.5 (≈ 17.8 µM)	50 (≈ 71 µM)	50 (≈ 71 µM)	50 (≈ 71 µM)	> 50	28			Sparingly soluble	Easily soluble
N=C(N)NCCCC(NC(=O)C(CO)NC(=O)C(N)CO)C(O)CC(=O)OCC1=C(C(=O)O)N2C(=O)C(NC=O)(NC(=O)CCCC(N)C(=O)O)C2SC1 (stereo not shown) [TAN-592B]	29	29	1.56 (≈ 1.97 µM)	6.25 (≈ 7.9 µM)	12.5 (≈ 15.8 µM)	12.5 (≈ 15.8 µM)	6.25 (≈ 7.9 µM)	25 (≈ 31.6 µM)	25 (≈ 31.6 µM)	50 (≈ 63.2 µM)	12.5 (≈ 15.8 µM)	> 50	25 (≈ 31.6 µM)	25 (≈ 31.6 µM)	> 50	29	16.2	no death	Sparingly soluble	Easily soluble
CC(N)C(=O)NC(CO)C(=O)NC(CO)C(=O)NC(CCCNC(=N)N)C(O)CC(=O)OCC1=C(C(=O)O)N2C(=O)C(NC=O)(NC(=O)CCCC(N)C(=O)O)C2SC1 (stereo not shown) [TAN-592C]	29	29	3.13 (≈ 3.63 µM)	6.25 (≈ 7.25 µM)	12.5 (≈ 14.5 µM)	12.5 (≈ 14.5 µM)	6.25 (≈ 7.25 µM)	> 50	25 (≈ 29 µM)	50 (≈ 58 µM)	25 (≈ 29 µM)	> 50	25 (≈ 29 µM)	50 (≈ 58 µM)	> 50	29			Sparingly soluble	Easily soluble
N=C(N)NCCCC(NC(=O)C(N)CO)C(O)CC(=O)OCC1=C(C(=O)O)N2C(=O)C(NC(=O)CCCC(N)C(=O)O)C2SC1 (stereo not shown) [TAN-592D]			> 50	25 (≈ 37.8 µM)	1.56 (≈ 2.36 µM)	1.56 (≈ 2.36 µM)	3.13 (≈ 4.74 µM)	> 50	> 50	> 50	50 (≈ 75.7 µM)	> 50	50 (≈ 75.7 µM)	> 50	> 50				Sparingly soluble	Easily soluble
N=C(N)NCCCC(NC(=O)C(CO)NC(=O)C(N)CO)C(O)CC(=O)OCC1=C(C(=O)O)N2C(=O)C(NC(=O)CCCC(N)C(=O)O)C2SC1 (stereo not shown) [TAN-592E]			> 50	25 (≈ 33.4 µM)	1.56 (≈ 2.09 µM)	1.56 (≈ 2.09 µM)	3.13 (≈ 4.19 µM)	> 50	> 50	> 50	50 (≈ 66.9 µM)	> 50	50 (≈ 66.9 µM)	> 50	> 50				Sparingly soluble	Easily soluble
CC(N)C(=O)NC(CO)C(=O)NC(CO)C(=O)NC(CCCNC(=N)N)C(O)CC(=O)OCC1=C(C(=O)O)N2C(=O)C(NC(=O)CCCC(N)C(=O)O)C2SC1 (stereo not shown) [TAN-592F]			> 50	12.5 (≈ 15.3 µM)	1.56 (≈ 1.91 µM)	1.56 (≈ 1.91 µM)	3.13 (≈ 3.82 µM)	> 50	> 50	> 50	50 (≈ 61.1 µM)	> 50	> 50	> 50	50 (≈ 61.1 µM)				Sparingly soluble	Easily soluble
